Measurements: ChEMBL document CHEMBL1157196, “Structure-based discovery of a novel non-peptidic small molecular inhibitor of caspase-3” (Bioorg Med Chem, 2008)

Key:
[1] = target: T1, Caspase-3 (Homo sapiens, UniProt P42574); assay: Inhibition of human recombinant caspase 3 preincubated for 10 mins
T1 sequence (P42574 whole entry): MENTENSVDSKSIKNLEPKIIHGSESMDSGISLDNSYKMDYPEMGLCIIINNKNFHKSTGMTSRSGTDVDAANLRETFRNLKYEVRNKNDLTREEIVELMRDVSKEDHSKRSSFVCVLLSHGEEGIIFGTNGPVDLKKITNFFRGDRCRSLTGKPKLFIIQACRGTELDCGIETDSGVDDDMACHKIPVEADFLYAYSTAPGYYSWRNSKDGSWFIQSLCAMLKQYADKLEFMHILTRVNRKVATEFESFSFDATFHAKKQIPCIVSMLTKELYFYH

[2] = target: T2, Caspase-7 (Homo sapiens, UniProt P55210); assay: Inhibition of human recombinant caspase 7 preincubated for 10 mins
T2 sequence (P55210 whole entry): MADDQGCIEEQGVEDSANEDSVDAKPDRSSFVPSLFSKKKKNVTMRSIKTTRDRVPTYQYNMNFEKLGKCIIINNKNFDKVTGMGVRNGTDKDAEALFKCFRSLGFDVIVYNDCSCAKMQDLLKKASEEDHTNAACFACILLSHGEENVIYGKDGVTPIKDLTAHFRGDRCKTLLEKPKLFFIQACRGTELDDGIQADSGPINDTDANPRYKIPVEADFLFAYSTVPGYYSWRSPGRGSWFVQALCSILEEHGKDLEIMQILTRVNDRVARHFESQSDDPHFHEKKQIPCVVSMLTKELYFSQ

[3] = target: Caspase-8 (Homo sapiens, UniProt Q14790); assay: Inhibition of human recombinant caspase 8 preincubated for 10 mins
[4] = target: T3, Caspase-9 (Homo sapiens, UniProt P55211); assay: Inhibition of human recombinant caspase 9 preincubated for 10 mins
T3 sequence (P55211 whole entry): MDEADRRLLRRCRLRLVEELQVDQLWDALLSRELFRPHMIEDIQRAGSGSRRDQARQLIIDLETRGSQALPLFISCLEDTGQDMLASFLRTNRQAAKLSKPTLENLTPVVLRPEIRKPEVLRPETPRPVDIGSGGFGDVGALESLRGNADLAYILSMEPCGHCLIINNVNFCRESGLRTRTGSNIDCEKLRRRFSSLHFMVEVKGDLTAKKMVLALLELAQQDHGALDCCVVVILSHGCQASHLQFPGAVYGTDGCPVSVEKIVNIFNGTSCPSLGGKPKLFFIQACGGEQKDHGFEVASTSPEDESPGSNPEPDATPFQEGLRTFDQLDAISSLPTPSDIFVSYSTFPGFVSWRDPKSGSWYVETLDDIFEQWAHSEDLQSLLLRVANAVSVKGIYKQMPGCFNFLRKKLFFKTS

Caspase-8, sequence (Q14790 217-374 limits assumed): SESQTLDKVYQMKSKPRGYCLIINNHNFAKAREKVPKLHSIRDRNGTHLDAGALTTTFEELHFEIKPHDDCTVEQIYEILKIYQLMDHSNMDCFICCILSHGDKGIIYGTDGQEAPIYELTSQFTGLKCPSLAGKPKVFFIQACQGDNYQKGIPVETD
Caspase-8, sequence (Q14790 385-479 limits assumed): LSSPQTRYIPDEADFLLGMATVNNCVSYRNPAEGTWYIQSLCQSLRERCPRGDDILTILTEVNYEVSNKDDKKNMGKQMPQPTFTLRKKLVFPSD

An IC50 [1] of 13.6 µM, an IC50 [2] of 84.9 µM and an IC50 [3] greater than 100 µM were found for `CCOC(=O)COc1cc(C(=O)O)c(O)c2ccccc12` in this work. For the same compound, the IC50 [4] was 93 µM.
